# Reference: patent publication EP2154155B1, “Analysis of agonist-activity and antagonist-activity to cytokinin receptor” (Sumitomo Chemical Company, Limited, priority 2001, dated 2002)
# Assays:
# [1] = system: Arabidopsis thaliana cytokinin receptor AHK3, SEQ ID No: 4, expressed in transformed cell TM182-AHK3; assay: Agonist-activity search: optical density of TM182-AHK3 liquid culture in 96-well plate; format: cell-based; conditions: examinee substance 100 µM at the final concentration, DOLU + Glu medium, 30°C, 24 hours, DMSO blank 0.51
# Description: (§2) The pre-cultured solutions were diluted with DOLU + Glu media as to become 0.100 as the optical density (OD600) and further the resultants were diluted with DOLU + Glu media at a dilution rate of 1/200 to obtain diluted pre-cultured solutions.
# (§3) An assay plate was prepared by filling respective wells of a 96-well plate with 20 µl of solutions which were prepared by diluting DMSO solution (10mM) of each examinee substance with DOLU + Glu medium at a dilution rate of 1/100, said solutions containing each examinee substance to be 100 µM at the final concentration. Simultaneously, an assay plate only filled with 20 µl of solutions which were prepared by diluting DMSO solution with DOLU + Glu medium, said solutions containing no examinee substance, was prepared as the blank sections.
# (§4) The diluted pre-cultured solutions were added in 200 µl each into the respective wells of both assay plates and cultured at 30°C for 24 hours and then the optical density (OD620) of each well was measured by a plate reader. The agonist-activity of the examinee substances to the cytokinin receptor was detected by comparing the optical density measured in the testing sections to which the examinee substances were added with the optical density measured in the blank sections.
# [2] = system: Arabidopsis thaliana cytokinin receptor AHK2 variant AHK2Δ (partially transmembrane region-deleted type, amino acid number 196 to 1176 of SEQ ID No: 2) …; assay: Agonist-activity search: optical density of TM182-AHK2Δ liquid culture in 96-well plate; conditions: examinee substance 100 µM at the final concentration, DOLU + Glu medium, 30°C, 24 hours, DMSO blank 0
# Description: The transformed cells TM 182-CRE 1, TM182-AHK2,TM182-AHK2 Δ and TM182-AHK3 produced in the example 12 were inoculated in 200 ml of DOLU + Gal culture media and pre-cultured at 30°C for 36 hours. The pre-cultured solutions were diluted with DOLU + Glu media as to become 0.100 as the optical density (OD600) and further the resultants were diluted with DOLU + Glu media at a dilution rate of 1/200 to obtain diluted pre-cultured solutions.
# An assay plate was prepared by filling respective wells of a 96-well plate with 20 µl of solutions which were prepared by diluting DMSO solution (10mM) of each examinee substance with DOLU + Glu medium at a dilution rate of 1/100, said solutions containing each examinee substance to be 100 µM at the final concentration. […]
# as §4
# [3] = system: Arabidopsis thaliana cytokinin receptor AHK2, SEQ ID No: 2, expressed in transformed cell TM182-AHK2; assay: Agonist-activity search: optical density of TM182-AHK2 liquid culture in 96-well plate; format: cell-based; conditions: examinee substance 100 µM at the final concentration, DOLU + Glu medium, 30°C, 24 hours, DMSO blank 0.01
# Description: as §2, §3, §4
# [4] = system: Arabidopsis thaliana cytokinin receptor AHK2, SEQ ID No: 2, expressed in transformed cell TM182-AHK2; conditions: 30°C, 30 hours
# Text: (§1) More particularly, for example, in the case of using a transformed cell (that is, a transformed cell having a function of directly controlling the cell growth by intracellular signal transduction from the cytokinin receptor) produced using TM182 (sln1 Δ) [Maeda T et al, Nature 369: 242-245 (1994)], a SLN1 genetically defected strain in which, for example, PTP2 Tyrosine phosphatase gene [Ota et al. Proc. N. A. Sci., USA, 89, 2355-2359 (1992)] is introduced as a host cell, the agonist-activity to the cytokinin receptor may be measured using, as an indicator, the quantity of the cell growth of the transformed cell in a culture medium (an agar culture medium or a liquid culture medium) containing glucose as a carbon source, for example, a DOLU + Glu culture medium. In the case of the DOLU + Glu culture medium to which the examinee substance is added, the examinee substance found capable of growing the transformed cell can be evaluated as a substance having the agonist-activity to the cytokinin receptor. On the other hand, in the case of the DOLU+Glu culture medium to which the examinee substance and a substance having the agonist-activity to the cytokinin receptor are added, the examinee substance found capable of suppressing or inhibiting the growth of the transformed cell can be evaluated as a substance having the antagonist-activity to the cytokinin receptor. […]
# [5] = system: Arabidopsis thaliana cytokinin receptor AHK2 variant AHK2Δ (partially transmembrane region-deleted type, amino acid number 196 to 1176 of SEQ ID No: 2) …; assay: Growth of transformed yeast cells TM182-AHK2Δ spotted on DOLU + Glu agar media containing cytokinin; format: cell-based; conditions: 30°C, 30 hours
# Text: as §1
# [6] = system: Arabidopsis thaliana cytokinin receptor AHK3, SEQ ID No: 4, expressed in transformed cell TM182-AHK3; conditions: DOLU + Glu agar media containing 10 µM of trans-zeatin, 30°C, 30 hours, compared with media containing no trans-zeatin
# Text: as §1
# [7] = system: Arabidopsis thaliana cytokinin receptor CRE1, SEQ ID No: 6, expressed in transformed cell TM182-CRE1; assay: Growth of transformed yeast cells TM182-CRE1 spotted on DOLU + Glu agar media containing cytokinin; format: cell-based; conditions: 30°C, 30 hours; for lowest observed supply concentration in which the transformed cells could be grown: DOLU + Glu agar media, cytokinin 1 nM to 100 µM
# Text: More particularly, for example, in the case of using a transformed cell (that is, a transformed cell having a function of directly controlling the cell growth by intracellular signal transduction from the cytokinin receptor) produced using TM182 (sln1 Δ) [Maeda T et al, Nature 369: 242-245 (1994)], a SLN1 genetically defected strain in which, for example, PTP2 Tyrosine phosphatase gene [Ota et al. Proc. N. A. Sci., USA, 89, 2355-2359 (1992)] is introduced as a host cell, the agonist-activity to the cytokinin receptor may be measured using, as an indicator, the quantity of the cell growth of the transformed cell in a culture medium (an agar culture medium or a liquid culture medium) containing glucose as a carbon source, for example, a DOLU + Glu culture medium. In the case of the DOLU + Glu culture medium to which the examinee substance is added, the examinee substance found capable of growing the transformed cell can be evaluated as a substance having the agonist-activity to the cytokinin receptor. On the other hand, in the case of the DOLU+Glu culture medium to which the examinee substance and a substance having the agonist-activity to the cytokinin receptor are added, the examinee substance found capable of suppressing or inhibiting the growth of the transformed cell can be evaluated as a substance having the antagonist-activity to the cytokinin receptor.
# Transformation of TM182 (sln1Δ), SLN1 genetically detected strain, [Maeda T et al. Nature: 369 242-245 (1994)] was carried out using the obtained expression plasmid p415CYC-CRE1 (the example 5), p415CYC-AHK2 (the example 11), p415CYC-AHK2 Δ (the example 11) and p415CYC-AHK3 (the example 8). The transformation was carried out by employing Polyethylene glycol/lithium acetate (PEG/LiAc)-mediated transformation method according to the description of VII. Library Transformation & Screening Protocols disclosed in […] Two-Hybrid System 3 User Manual p.
# After incubation, the growth state of the transformed cells was observed and photographed by a digital camera. […]
# [8] = DOLU + Glu agar media containing 10 µM of trans-zeatin, compared with media containing no trans-zeatin
# [9] = DOLU + Glu agar media, cytokinin 1 nM to 100 µM
compound,measurement,setting,value
"c1ccc(CNc2ncnc3nc[nH]c23)cc1 [Compound B, 6-Benzyl aminopurine]",optical density (OD620) of the culture solutions of the transformed cells,[1],0.88
same,optical density (OD620) of the culture solutions of the transformed cells,[2],0.89
same,optical density (OD620) of the culture solutions of the transformed cells,[3],0.45
C/C(=C\CNc1ncnc2[nH]cnc12)CO [trans-zeatin],growth state of the transformed cells,[4]; [8],high growth
same,growth state of the transformed cells,[5]; [8],high growth
same,lowest observed supply concentration in which the transformed cells could be grown,[5]; [9],100 nM
same,growth state of the transformed cells,[6],high growth
same,growth state of the transformed cells,[7]; [8],high growth
same,lowest observed supply concentration in which the transformed cells could be grown,[7],10 µ M
C/C(=C/CNc1ncnc2[nH]cnc12)CO [cis-zeatin],lowest observed supply concentration in which the transformed cells could be grown,[4]; [9],10 µ M
same,lowest observed supply concentration in which the transformed cells could be grown,[7],no growth
"CC1=CC(=O)CC(C)(C)[C@@]1(O)/C=C/C(C)=C\C(=O)O [Compound A, Abscisic acid]",optical density (OD620) of the culture solutions of the transformed cells,[1],0.54
same,optical density (OD620) of the culture solutions of the transformed cells,[3],0.01
